These results are taken from patent publication US20150191469A1, “COMPOUNDS AND METHODS FOR TREATING HIV” (priority 2012, published 2015).

pIC50: −log10 of the molar value.

In the test the test system is HIV. Description: MT4 assay: antiviral HIV activity (cell protection, cell titer glo readout at 96 hours). Type of test: cell-based. The settings on record: Human immunodeficiency virus 1, MT4, 96 h, MT4 cells, cell titer glo readout at 96 hours, 10 point dose response; read-out: HIV MT4 Assay IC50. An outline of the steps: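 MT-4 cells infected with HIV, with inhibition readout by CellTiter-Glo luminescence at 96 h relative to no-compound control. Cytotoxicity measured in parallel under the same conditions. IC50 from a 10-point, 3-4-fold dilution series spanning >1000-fold, fitted with a four-parameter logistic equation.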
For orientation: Cellular ATP, detected with luciferase, serves as a proxy for viable cell number.
Regarding `Cc1nc2c(cc(-c3ccnc(OC4CCN(Cc5ccccc5)CC4)c3)n2C)c(-c2cc(F)c3c(c2C)CCCO3)c1[C@H](OC(C)(C)C)C(=O)O` [Example 75], the pIC50 was 7.00.

`Cc1nc2c(cc(-c3ccnc(CNc4ccccn4)c3)n2C)c(-c2cc(F)c3c(c2C)CCCO3)c1[C@H](OC(C)(C)C)C(=O)O` [Example 76]: the pIC50 was 6.95.

In the case of `Cc1nc2c(cc(-c3ccnc(CN(C)c4ccccn4)c3)n2C)c(-c2cc(F)c3c(c2C)CCCO3)c1[C@H](OC(C)(C)C)C(=O)O` [Example 77], the pIC50 is 7.39.

On to `Cc1nc2c(cc(-c3ccnc(-c4ccc5c(c4)OCCO5)c3)n2C)c(-c2cc(F)c3c(c2C)CCCO3)c1[C@H](OC(C)(C)C)C(=O)O` [Example 78], for which the pIC50 is 8.24.

`Cc1nc2c(cc(-c3ccnc(N4CCCN(C(=O)C5CCOC5)CC4)c3)n2C)c(-c2cc(F)c3c(c2C)CCCO3)c1[C@H](OC(C)(C)C)C(=O)O` (stereo partly drawn) [Example 105]: the pIC50 is 7.26.

For `Cc1nc2c(cc(-c3ccnc(N4CCC(Oc5ccccc5)C4)c3)n2C)c(-c2cc(F)c3c(c2C)CCCO3)c1[C@H](OC(C)(C)C)C(=O)O` (stereo partly drawn) [Example 107], the pIC50 was 7.35.

As to `CCN(CC)C1C[C@H]2CC[C@@H](C1)N2c1cc(-c2cc3c(-c4cc(F)c5c(c4C)CCCO5)c([C@H](OC(C)(C)C)C(=O)O)c(C)nc3n2C)ccn1` (stereo partly drawn) [Example 110], the pIC50 was 7.35.

`Cc1nc2c(cc(-c3ccnc(NC4C[C@H]5CC[C@@H](C4)N5C)c3)n2C)c(-c2cc(F)c3c(c2C)CCCO3)c1[C@H](OC(C)(C)C)C(=O)O` (stereo partly drawn) [Example 112]: the pIC50 is 5.88.

In the case of `Cc1nc2c(cc(-c3ccnc(N4CCN5CCCC5C4)c3)n2C)c(-c2cc(F)c3c(c2C)CCCO3)c1[C@H](OC(C)(C)C)C(=O)O` (stereo partly drawn) [Example 116], the pIC50 is 7.40.

On to `Cc1nc2c(cc(-c3ccnc(N4CC5CN(C6COC6)CC5C4)c3)n2C)c(-c2cc(F)c3c(c2C)CCCO3)c1[C@H](OC(C)(C)C)C(=O)O` (stereo partly drawn) [Example 121], for which the pIC50 is 7.82.

Turning to `Cc1nc2c(cc(-c3ccnc(N4CCN5CCC4C5)c3)n2C)c(-c2cc(F)c3c(c2C)CCCO3)c1[C@H](OC(C)(C)C)C(=O)O` (stereo partly drawn) [Example 123], the pIC50 is 6.78.

Consider `Cc1nc2c(cc(-c3ccnc(N4CCCN5CCCC5C4)c3)n2C)c(-c2cc(F)c3c(c2C)CCCO3)c1[C@H](OC(C)(C)C)C(=O)O` (stereo partly drawn) [Example 124], for which the pIC50 is 7.49.

On to `Cc1nc2c(cc(-c3ccnc(N4CCCN(C5CCOC5)CC4)c3)n2C)c(-c2cc(F)c3c(c2C)CCCO3)c1[C@H](OC(C)(C)C)C(=O)O` (stereo partly drawn) [Example 126], for which the pIC50 is 7.65.

Take `Cc1nc2c(cc(-c3cncc(-c4ccc5c(cnn5C)c4)c3)n2C)c(-c2cc(F)c3c(c2C)CCCO3)c1[C@H](OC(C)(C)C)C(=O)O` [Example 138]: the pIC50 is 8.82.

Turning to `Cc1nc2c(cc(-c3cc(-c4ccc5c(cnn5C)c4)ccn3)n2C)c(-c2cc(F)c3c(c2C)CCCO3)c1[C@H](OC(C)(C)C)C(=O)O` [Example 139], the pIC50 was 8.70.

In the case of `Cc1nc2c(cc(-c3cc(-c4ccc5c(cnn5C)c4)[nH]n3)n2C)c(-c2cc(F)c3c(c2C)CCCO3)c1[C@H](OC(C)(C)C)C(=O)O` [Example 140], the pIC50 was 7.85.

As for `Cc1nc2c(cc(-c3nc(-c4ccc5c(cnn5C)c4)nn3C)n2C)c(-c2cc(F)c3c(c2C)CCCO3)c1[C@H](OC(C)(C)C)C(=O)O` [Example 141], the pIC50 is 6.83.

`Cc1nc2c(cc(-c3cc(-c4ccc5c(cnn5C)c4)ncn3)n2C)c(-c2cc(F)c3c(c2C)CCCO3)c1[C@H](OC(C)(C)C)C(=O)O` [Example 142]: the pIC50 is 8.74.

For `Cc1nc2c(cc(-c3cnc(-c4ccc5c(cnn5C)c4)s3)n2C)c(-c2cc(F)c3c(c2C)CCCO3)c1[C@H](OC(C)(C)C)C(=O)O` [Example 143], the pIC50 was 7.90.

For `Cc1nc2c(cc(C(=O)N3CCCN(C4COC4)CC3)n2C)c(-c2cc(F)c3c(c2C)CCCO3)c1[C@H](OC(C)(C)C)C(=O)O` [Example 162], the pIC50 is 5.44.

Regarding `Cc1nc2c(cc(C(=O)Nc3ccc4c(cnn4C)c3)n2C)c(-c2cc(F)c3c(c2C)CCCO3)c1[C@H](OC(C)(C)C)C(=O)O` [Example 163], the pIC50 is 7.37.

For `Cc1nc2c(cc(C(=O)N3CCC(Oc4ccc(C#N)cc4)CC3)n2C)c(-c2cc(F)c3c(c2C)CCCO3)c1[C@H](OC(C)(C)C)C(=O)O` [Example 164], the pIC50 is 7.37.

For `Cc1nc2c(cc(C(=O)N3CCC(NC(=O)c4cncn4C)CC3)n2C)c(-c2cc(F)c3c(c2C)CCCO3)c1[C@H](OC(C)(C)C)C(=O)O` [Example 165], the pIC50 is 4.30.

For `Cc1nc2c(cc(C(=O)N3CCn4cnnc4C3)n2C)c(-c2cc(F)c3c(c2C)CCCO3)c1[C@H](OC(C)(C)C)C(=O)O` [Example 166], the pIC50 is 4.30.

`Cc1nc2c(cc(C(=O)N3CCc4ccc(S(=O)(=O)NC(C)C)cc4C3)n2C)c(-c2cc(F)c3c(c2C)CCCO3)c1[C@H](OC(C)(C)C)C(=O)O` [Example 167]: the pIC50 is 6.45.

On to `Cc1nc2c(cc(CNC(=O)N3CCCN(C4COC4)CC3)n2C)c(-c2cc(F)c3c(c2C)CCCO3)c1[C@H](OC(C)(C)C)C(=O)O` [Example 168], for which the pIC50 was 4.90.

As to `Cc1nc2c(cc(C(=O)N3CCN(c4ccncc4)CC3)n2C)c(-c2cc(F)c3c(c2C)CCCO3)c1[C@H](OC(C)(C)C)C(=O)O` [Example 169], the pIC50 is 5.91.

In the case of `Cc1nc2c(cc(C(=O)N3CCC(c4ccccc4)CC3)n2C)c(-c2cc(F)c3c(c2C)CCCO3)c1[C@H](OC(C)(C)C)C(=O)O` [Example 170], the pIC50 was 8.38.

With `Cc1nc2c(cc(C(=O)N3CCC(c4ccncc4)CC3)n2C)c(-c2cc(F)c3c(c2C)CCCO3)c1[C@H](OC(C)(C)C)C(=O)O` [Example 171], the pIC50 was 7.49.

With `Cc1nc2c(cc(C(=O)N3CCN(c4ccccc4)CC3)n2C)c(-c2cc(F)c3c(c2C)CCCO3)c1[C@H](OC(C)(C)C)C(=O)O` [Example 172], the pIC50 is 8.23.

`Cc1nc2c(cc(C(=O)N3CCN(C)CC3)n2C)c(-c2cc(F)c3c(c2C)CCCO3)c1[C@H](OC(C)(C)C)C(=O)O` [Example 173]: the pIC50 is 6.45.

As for `Cc1nc2c(cc(C(=O)N3CCc4ccccc4C3)n2C)c(-c2cc(F)c3c(c2C)CCCO3)c1[C@H](OC(C)(C)C)C(=O)O` [Example 174], the pIC50 is 8.44.

For the molecule `Cc1nc2c(cc(C(=O)N3CCC(c4ccc(C#N)cc4)CC3)n2C)c(-c2cc(F)c3c(c2C)CCCO3)c1[C@H](OC(C)(C)C)C(=O)O` [Example 175], the pIC50 was 8.32.

Regarding `Cc1nc2c(cc(C(=O)N3CCC(C)CC3)n2C)c(-c2cc(F)c3c(c2C)CCCO3)c1[C@H](OC(C)(C)C)C(=O)O` [Example 176], the pIC50 was 7.59.

As for `Cc1nc2c(cc(C(=O)N3CCC(c4cccc(C#N)c4)CC3)n2C)c(-c2cc(F)c3c(c2C)CCCO3)c1[C@H](OC(C)(C)C)C(=O)O` [Example 177], the pIC50 was 8.33.

Consider `Cc1nc2c(cc(C(=O)N3CCC(c4ccc(C(N)=O)cc4)CC3)n2C)c(-c2cc(F)c3c(c2C)CCCO3)c1[C@H](OC(C)(C)C)C(=O)O` [Example 178], for which the pIC50 was 6.76.

Turning to `Cc1nc2c(cc(C(=O)N3CCC[C@H]3C(=O)N(C)c3ccc4c(cnn4C)c3)n2C)c(-c2cc(F)c3c(c2C)CCCO3)c1[C@H](OC(C)(C)C)C(=O)O` [Example 179], the pIC50 was 6.07.

For the molecule `Cc1nc2c(cc(C(=O)N3CCN(S(C)(=O)=O)CC3)n2C)c(-c2cc(F)c3c(c2C)CCCO3)c1[C@H](OC(C)(C)C)C(=O)O` [Example 180], the pIC50 is 5.72.

Regarding `Cc1nc2c(cc(C(=O)N3CCC(F)(F)CC3)n2C)c(-c2cc(F)c3c(c2C)CCCO3)c1[C@H](OC(C)(C)C)C(=O)O` [Example 181], the pIC50 is 7.38.

For `Cc1nc2c(cc(C(=O)N3CCN4CCCC4C3)n2C)c(-c2cc(F)c3c(c2C)CCCO3)c1[C@H](OC(C)(C)C)C(=O)O` (stereo partly drawn) [Example 182], the pIC50 was 6.88.

On to `Cc1nc2c(cc(C(=O)N3CCc4ccccc43)n2C)c(-c2cc(F)c3c(c2C)CCCO3)c1[C@H](OC(C)(C)C)C(=O)O` [Example 183], for which the pIC50 is 7.47.

On to `Cc1nc2c(cc(C(=O)N3Cc4ccccc4C3)n2C)c(-c2cc(F)c3c(c2C)CCCO3)c1[C@H](OC(C)(C)C)C(=O)O` [Example 184], for which the pIC50 was 7.38.

In the case of `Cc1nc2c(cc(-c3ccn(C4CN(C(=O)OC(C)(C)C)C4)n3)n2C)c(-c2cc(F)c3c(c2C)CCCO3)c1[C@H](OC(C)(C)C)C(=O)O` [Example 185], the pIC50 was 7.49.

For the molecule `Cc1nc2c(cc(-c3cnn(CC4CN(C(=O)OC(C)(C)C)C4)c3)n2C)c(-c2cc(F)c3c(c2C)CCCO3)c1[C@H](OC(C)(C)C)C(=O)O` [Example 186], the pIC50 is 7.39.

Turning to `Cc1nc2c(cc(-c3ccn(C4CN(C5CCOCC5)C4)n3)n2C)c(-c2cc(F)c3c(c2C)CCCO3)c1[C@H](OC(C)(C)C)C(=O)O` [Example 187], the pIC50 was 7.58.

Consider `Cc1nc2c(cc(C(=O)N3C[C@@H]4CC[C@H]3CN(C3COC3)C4)n2C)c(-c2cc(F)c3c(c2C)CCCO3)c1[C@H](OC(C)(C)C)C(=O)O` [Example 188], for which the pIC50 is 7.06.

Consider `Cc1nc2c(cc(C(=O)N3CC4CN(C5COC5)CC4C3)n2C)c(-c2cc(F)c3c(c2C)CCCO3)c1[C@H](OC(C)(C)C)C(=O)O` (stereo partly drawn) [Example 189], for which the pIC50 is 5.92.

In the case of `Cc1nc2c(cc(C(=O)N[C@H](C)c3ccccc3)n2C)c(-c2cc(F)c3c(c2C)CCCO3)c1[C@H](OC(C)(C)C)C(=O)O` [Example 190], the pIC50 is 7.85.

Regarding `Cc1nc2c(cc(C(=O)N3CCC(c4c[nH]c5ccccc45)CC3)n2C)c(-c2cc(F)c3c(c2C)CCCO3)c1[C@H](OC(C)(C)C)C(=O)O` [Example 191], the pIC50 was 8.31.

Consider `Cc1nc2c(cc(C(=O)N(C)Cc3ccccc3)n2C)c(-c2cc(F)c3c(c2C)CCCO3)c1[C@H](OC(C)(C)C)C(=O)O` [Example 192], for which the pIC50 was 7.78.

On to `Cc1nc2c(cc(C(=O)N3CCC4(CCCC4)CC3)n2C)c(-c2cc(F)c3c(c2C)CCCO3)c1[C@H](OC(C)(C)C)C(=O)O` [Example 193], for which the pIC50 was 7.91.

One may read the pIC50 as the IC50 on a negative log10 scale, so that one unit is a factor of ten.
